# Source: patent publication US10144706B2 (BRISTOL-MYERS SQUIBB COMPANY, priority 2016, dated 2018)
# pIC50: −log10 of the molar value.
# Biological target: T1, PD-1/PD-L1 interaction (PD-1-Ig / PD-L1-His) (Homo sapiens, UniProt Q9NZQ7)
# T1 construct: hPDL1(18-239)-TVMV-His; TVMV protease site linker (C); made in house; host or cells: HEK293T
# Test: PD-1/PD-L1 Homogenous Time-Resolved Fluorescence (HTRF) binding assay
# Conditions: IC50 range class; PD-L1-His 10 nM, PD-1-Ig 20 nM; read-out: Range or IC50
# Description: The ability of the compounds of formula (I) to bind to PD-L1 was investigated using a PD-1/PD-L1 Homogenous Time-Resolved Fluorescence (HTRF) binding assay.
# Homogenous Time-Resolved Fluorescence (HTRF) Binding Assay.
# The interaction of PD-1 and PD-L1 can be assessed using soluble, purified preparations of the extracellular domains of the two proteins. The PD-1 and PD-L1 protein extracellular domains were expressed as fusion proteins with detection tags, for PD-1, the tag was the Fc portion of Immunoglobulin (PD-1-Ig) and for PD-L1 it was the 6 histidine motif (PD-L1-His). All binding studies were performed in an HTRF assay buffer consisting of dPBS supplemented with 0.1% […] bovine serum albumin and 0.05% (v/v) Tween-20. For the h/PD-L1-His binding assay, inhibitors were pre-incubated with PD-L1-His (10 nM final) for 15 m in 4 μl of assay buffer, followed by addition of PD-1-Ig (20 nM final) in 1 μl of assay buffer and further incubation for 15 m. HTRF detection was achieved using europium crypate-labeled anti-Ig (1 nM final) and allophycocyanin (APC) labeled anti-His (20 nM final). Antibodies were diluted in HTRF detection buffer and 5 μl was dispensed on top of the binding reaction. […] Additional binding assays were established between the human proteins PD-1-Ig/PD-L2-His (20 & 5 nM, respectively) and CD80-His/PD-L1-Ig (100 & 10 nM, respectively). […]
# T1 sequence (Q9NZQ7 with tags, fused parts or gaps): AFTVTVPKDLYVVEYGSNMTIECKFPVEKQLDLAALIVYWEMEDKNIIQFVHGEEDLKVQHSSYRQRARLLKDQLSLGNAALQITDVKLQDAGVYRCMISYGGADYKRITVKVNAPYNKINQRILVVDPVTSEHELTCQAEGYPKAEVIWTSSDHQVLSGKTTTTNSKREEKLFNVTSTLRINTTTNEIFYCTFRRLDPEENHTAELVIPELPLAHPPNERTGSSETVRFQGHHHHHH
row,Compound,pIC50
1,"Cc1c(OCCCNCC2CCN(C)CC2)cccc1-c1cccc(OCCCN2CC[C@@H](O)C2)c1C [Example 2044, (R)-1-(3-((2,2′-dimethyl-3′-(3-(((1-methylpiperidin-4-yl)methyl)amino)propoxy)-[1,1′-biphenyl]-3-yl)oxy)propyl)pyrrolidin-3-ol]",6.00 to 7.05
2,"Cc1c(OCCCNCCc2ccccc2)cccc1-c1cccc(OCCCN2CC[C@@H](O)C2)c1C [Example 2041, (R)-1-(3-((2,2′-dimethyl-3′-(3-(phenethylamino)propoxy)-[1,1′-biphenyl]-3-yl)oxy)propyl)pyrrolidin-3-ol]",6.00 to 7.05
3,"Cc1c(OCCCNCCCN2CCOCC2)cccc1-c1cccc(OCCCN2CC[C@@H](O)C2)c1C [Example 2021, (R)-1-(3-((2,2′-dimethyl-3′-(3-((3-morpholinopropyl)amino)propoxy)-[1,1′-biphenyl]-3-yl)oxy)propyl)pyrrolidin-3-ol]",7.05 to 7.70
4,N#Cc1cncc(COc2cc(OCc3cccc(-c4cccc(COc5cc(OCc6cncc(C#N)c6)c(C(=O)NC6CC6)cc5Cl)c4Cl)c3Cl)c(Cl)cc2C(=O)O)c1 [Example 90020],7.05 to 7.70
5,"Cc1cc(OCCCN2CC[C@@H](O)C2)ccc1-c1cccc(OCCCCCN2CC[C@@H](O)C2)c1C [Example 3005, (R)-1-(3-((3′-((5-((R)-3-hydroxypyrrolidin-1-yl)pentyl)oxy)-2,2′-dimethyl-[1,1′-biphenyl]-4-yl)oxy)propyl)pyrrolidin-3-ol]",5.00 to 6.00
6,"Cc1c(OCCCNC2CCN(C)CC2)cccc1-c1cccc(OCCCN2CC[C@@H](O)C2)c1C [Example 2066, (R)-1-(3-((2,2′-dimethyl-3′-(3-((1-methylpiperidin-4-yl)amino)propoxy)-[1,1′-biphenyl]-3-yl)oxy)propyl)pyrrolidin-3-ol]",6.00 to 7.05
7,Cc1c(COc2cc(OCc3cncc(C#N)c3)c(CN3CCC[C@H]3C(N)=O)cc2Cl)cccc1-c1cccc(COc2cc(OCc3cncc(C#N)c3)c(CN3CCC[C@H]3C(N)=O)cc2Cl)c1C [Example 40680],6.00 to 7.05
8,"Cc1c(OCCCNC[C@@H](O)c2ccccc2)cccc1-c1cccc(OCCCN2CC[C@@H](O)C2)c1C [Example 2113, (R)-1-(3-((3′-(3-(((S)-2-hydroxy-2-phenylethyl)amino)propoxy)-2,2′-dimethyl-[1,1′-biphenyl]-3-yl)oxy)propyl)pyrrolidin-3-ol]",7.05 to 7.70
9,Cc1c(COc2cc(OCc3cncc(C#N)c3)c(C(=O)NCc3ccncn3)cc2Cl)cccc1-c1cccc(COc2cc(OCc3cncc(C#N)c3)c(C(=O)NCc3ccncn3)cc2Cl)c1C [Example 80090],6.00 to 7.05
10,"Cc1cc(OCCCN2CC[C@@H](O)C2)ccc1-c1ccc(OCCCN2CC[C@@H](O)C2)cc1C [Example 3012, (3R,3′R)-1,1′-(((2,2′-dimethyl-[1,1′-biphenyl]-4,4′-diyl)bis(oxy))bis(propane-3,1-diyl))bis(pyrrolidin-3-ol)]",< 5.00
11,N#Cc1cncc(COc2cc(OCc3cccc(-c4cccc(COc5cc(OCc6cncc(C#N)c6)c(C(=O)NCC6CCCO6)cc5Cl)c4Cl)c3Cl)c(Cl)cc2C(=O)O)c1 (stereo not shown) [Example 90060],5.00 to 6.00
12,"Cc1c(OCCCN[C@H]2CC[C@H](O)CC2)cccc1-c1cccc(OCCCN2CC[C@@H](O)C2)c1C [Example 2017, (R)-1-(3-((3′-(3-(((1r,4r)-4-hydroxycyclohexyl)amino)propoxy)-2,2′-dimethyl-[1,1′-biphenyl]-3-yl)oxy)propyl)pyrrolidin-3-ol]",7.05 to 7.70

# Second part, the compound after the results:
row,pIC50,Compound
1,7.70 to 10.40,"Cc1c(COc2cc(OCc3ccc(-n4cccn4)nc3)c(CN[C@@](C)(CO)C(=O)O)cc2Cl)cccc1-c1cccc(COc2cc(OCc3ccc(-n4cccn4)nc3)c(CN[C@@](C)(CO)C(=O)O)cc2Cl)c1C [Example 5022, (2S,2′S)-2,2′-((((((2,2′-dimethyl-[1,1′-biphenyl]-3,3′-diyl)bis(methylene))bis(oxy))bis(2-((6-(1H-pyrazol-1-yl)pyridin-3-yl)methoxy)-5-chloro-4,1-phenylene))bis(methylene))bis(azanediyl))bis(3-hydroxy-2-methylpropanoic acid)]"
2,7.05 to 7.70,"Cc1c(OCCCNCC(C)(C)CO)cccc1-c1cccc(OCCCN2CC[C@@H](O)C2)c1C [Example 2046, (R)-1-(3-((3′-(3-((3-hydroxy-2,2-dimethylpropyl)amino)propoxy)-2,2′-dimethyl-[1,1′-biphenyl]-3-yl)oxy)propyl)pyrrolidin-3-ol]"
3,7.05 to 7.70,"Cc1c(OCCCNC[C@H](O)CO)cccc1-c1cccc(OCCCN2CCC[C@H](C(=O)O)C2)c1C [Example 2081, (S)-1-(3-((3′-(3-(((S)-2,3-dihydroxypropyl)amino)propoxy)-2,2′-dimethyl-[1,1′-biphenyl]-3-yl)oxy)propyl)piperidine-3-carboxylic acid]"
4,7.70 to 10.40,Cc1c(COc2cc(OCc3cncc(C#N)c3)c(CO)cc2Cl)cccc1-c1cccc(COc2cc(OCc3cncc(C#N)c3)c(CNC(C(=O)O)C(=O)O)cc2Cl)c1C [Example 50220]
5,7.70 to 10.40,Cc1c(COc2cc(OCc3cncc(C#N)c3)c(CO)cc2Cl)cccc1-c1cccc(COc2cc(OCc3cncc(C#N)c3)c(CN[C@H](CCO)C(=O)O)cc2Cl)c1C [Example 50210]
6,7.05 to 7.70,Cc1c(OCCCN2CC[C@@H](O)C2)cccc1-c1cccc(OCc2cncc(C#N)c2)c1C [Example 3011]
7,7.05 to 7.70,"Cc1c(OCCCN(C)CCOCCN(C)CCCOc2cccc(-c3cccc(OCCCN4CC[C@@H](O)C4)c3C)c2C)cccc1-c1cccc(OCCCN2CC[C@@H](O)C2)c1C [Example 2095, (3R,3′R)-1,1′-(((((((oxybis(ethane-2,1-diyl))bis(methylazanediyl))bis(propane-3,1-diyl))bis(oxy))bis(2,2′-dimethyl-[1,1′-biphenyl]-3′,3-diyl))bis(oxy))bis(propane-3,1-diyl))bis(pyrrolidin-3-ol)]"
8,7.70 to 10.40,Cc1c(COc2cc(OCc3cncc(C#N)c3)c(CO)cc2Cl)cccc1-c1cccc(COc2cc(OCc3cncc(C#N)c3)c(CN[C@H](C(=O)O)[C@@H](C)[C@H](C)O)cc2Cl)c1C [Example 50340]
9,7.05 to 7.70,"Cc1c(COc2cc(OCc3cc(F)cc(F)c3)c(CN(C)[C@@H](CO)C(=O)O)cc2Cl)cccc1-c1cccc(COc2cc(OCc3cc(F)cc(F)c3)c(CN(C)[C@@H](CO)C(=O)O)cc2Cl)c1C [Example 5013, (2S,2′S)-2,2′-((((((2,2′-dimethyl-[1,1′-biphenyl]-3,3′-diyl)bis(methylene))bis(oxy))bis(5-chloro-2-((3,5-difluorobenzyl)oxy)-4,1-phenylene))bis(methylene))bis(methylazanediyl))bis(3-hydroxypropanoic acid)]"
10,7.70 to 10.40,Cc1c(COc2cc(OCc3cncc(C#N)c3)c(CO)cc2Cl)cccc1-c1cccc(COc2cc(OCc3cncc(C#N)c3)c(CN3CCC[C@H](C(=O)O)C3)cc2Cl)c1C [Example 50120]
11,7.05 to 7.70,"COc1cc(OCc2cccc(-c3cccc(COc4cc(OC)c(CN(C)Cc5cc[nH]n5)cc4Cl)c3C)c2C)c(Cl)cc1CN(C)Cc1cc[nH]n1 [Example 5037, 1,1′-((((2,2′-dimethyl-[1,1′-biphenyl]-3,3′-diyl)bis(methylene))bis(oxy))bis(5-chloro-2-methoxy-4,1-phenylene))bis(N-((1H-pyrazol-3-yl)methyl)-N-methylmethanamine)]"
12,7.70 to 10.40,CCN(Cc1cc(Cl)c(OCc2cccc(-c3cccc(COc4cc(OCc5cncc(C#N)c5)c(CN(CC)C(CCO)C(=O)O)cc4Cl)c3C)c2C)cc1OCc1cncc(C#N)c1)C(CCO)C(=O)O (stereo not shown) [Example 40800]
13,7.70 to 10.40,"Cc1c(OCCCN2CC[C@@H](O)C2)cccc1-c1cccc(OCCCN2CC[C@H](CO)[C@H](O)C2)c1C [Example 2033, (3S,4R)-4-(hydroxymethyl)-1-(3-((3′-(3-((R)-3-hydroxypyrrolidin-1-yl)propoxy)-2,2′-dimethyl-[1,1′-biphenyl]-3-yl)oxy)propyl)piperidin-3-ol]"
14,7.70 to 10.40,CC(=O)c1cc(Cl)c(OCc2cccc(-c3cccc(COc4cc(OCc5cncc(C#N)c5)c(CN[C@H](C(=O)O)[C@@H](C)O)cc4Cl)c3C)c2C)cc1OCc1cncc(C#N)c1 [Example 60020]
15,7.70 to 10.40,CC(=O)c1cc(Cl)c(OCc2cccc(-c3cccc(COc4cc(OCc5cncc(C#N)c5)c(CN[C@](C)(CO)C(=O)O)cc4Cl)c3Cl)c2Cl)cc1OCc1cncc(C#N)c1 [Example 60040]
16,7.70 to 10.40,"Cc1c(COc2cc(OCc3cncc(C#N)c3)c(CNC[C@H](O)CO)cc2Cl)cccc1-c1cccc(COc2cc(OCc3cncc(C#N)c3)c(CNC[C@H](O)CO)cc2Cl)c1C [Example 2127, 5,5′-((((((2,2′-dimethyl-[1,1′-biphenyl]-3,3′-diyl)bis(methylene))bis(oxy))bis(4-chloro-6-((((S)-2,3-dihydroxypropyl)amino)methyl)-3,1-phenylene))bis(oxy))bis(methylene))dinicotinonitrile]"
